Test [1] relates to Human immunodeficiency virus. Description: Antiviral activity against HIV at 0.64 ug/well. Format: functional.
Test [2] has as its system HT-29. Description: Antitumor activity against human HT-29 cells. The test is classed as functional, cell-based.
Test [3] concerns P388. Put plainly: Antitumor activity against mouse P388 cells. Format: functional, cell-based.
The nature of test [4]: Antitumor activity against mouse SCHABEL cells. The test is classed as functional, cell-based.
The test system of test [5] is A549. Description: Antitumor activity against human A549 cells. The test is classed as functional, cell-based.
Test [6] concerns SK-MEL-28. Description: Antitumor activity against human SK-MEL-28 cells. Format: functional, cell-based.

In brackets after ≈: the same amount, converted by molar mass.

Broadly, the IC50 is the concentration that gives 50% inhibition. For `C=C(CC[C@@H](C)[C@H]1CC[C@H]2c3ccc4c(c3CC[C@]12C)CC[C@H](O)C4)C(C)C` [PHYCOMYSTEROL A], the Activity in test [1] stood at 64%. Besides, the IC50 in test [2] worked out at 10 µg/mL (≈ 26.3 µM); in test [3] it was 5 µg/mL (≈ 13.1 µM); in test [4], 5 µg/mL (≈ 13.1 µM); in test [5] it was 10 µg/mL (≈ 26.3 µM); in test [6] it was 10 µg/mL (≈ 26.3 µM).

The values are drawn from ChEMBL document CHEMBL1151322, “Phycomysterols and other sterols from the fungus Phycomyces blakesleeanus” (J Nat Prod, 1998).
